The values below are quoted from earlier work in patent US6448244B1, “Water soluble azoles as broad-spectrum antifungals” (Janssen Pharmaceutica N.V., priority 1998, dated 2002).

The conditions of the series: Saksena et al., Bioorg. Med. Chem. Lett. (1995), 5(2), 127-132.

For `CN(C)CCn1ncn(-c2ccc(N3CCN(c4ccc(OC[C@@H]5CO[C@@](Cn6cncn6)(c6ccc(F)cc6F)C5)cc4)CC3)cc2)c1=O` (relative stereo) [(3R-cis)-4-[4-[4-[4-[[5-(2,4-difluorophenyl)tetrahydro-5-(1H-1,2,4-triazol-1-ylmethyl)-3-furanyl]methoxy]phenyl]-1-piperazinyl]phenyl]-2-[2-(dimethylamino)ethyl]-2,4-dihydro-3H-1,2,4-triazol-3-one], the “antifungal activity compared to SCH 51048” value is given as “profoundly less active”.
